{
  "source": "patent US20120058110A1",
  "about": "“Method for Predicting the Responsiveness to an Anti-TNF Alpha Antibody Treatment” (INSERM (INSTITUT NATIONAL DE LA SANTE ET DE LA RECHERCHE …, priority 2009, published 2012)",
  "key": {"human macrophages": {"system": "human macrophages", "assay": "sIL-15Rα secretion by human macrophages cultured with IFX, etanercept, GM-6001", "format": "cell-based", "conditions": "for sIL-15Rα secretion: human macrophages, 8 h; for effect on sIL-15Rα secretion by macrophages: versus macrophages cultured without the agent", "experimental": "(§1) The quantification of sIL-15Rα and IL-15 was determined as previously described (Mortier et al. J Immunol 2004; 173:1681-8). Sandwich RIAs were set up in which the goat anti-human IL-15Rα Ab AF247 or the mouse anti-human IL-15 Mab247 (R&D) was used as capture Ab and radio-iodinated anti-human IL-15Rα Ab M161 (GenMab; Copenhagen, Denmark) or radio-iodinated mouse anti human IL-15 BE-29 (Diaclone: Besançon, France) was used as tracer. A purified recombinant sIL-15Rα protein (Bernard et al. J Biol Chem 2004; 279:24313-22) and recombinant IL-15 (Peprotech) were used as standards. Capture Abs were coated (5 μg/mL; 50 μL/well) to high-adsorption Nunc maxisorp plates (Fisher Bioblock Scientific, Illkirch, France). Wells were saturated with PBS-BSA 0.5% for 15 min and samples (50 μL/well) were incubated for 1 h at 4° C. The M161 or BE-29 mAbs were iodinated using the iodogen method and then added (1 nM, 50 μL/well) for 1 h at 4° C. Supernatants of each well were collected and the wells washed twice with PBS. The radioactivity associated to the wells (bound fraction) and contained in the supernatants and washes (unbound fraction) were determined.\nHuman monocytes were isolated from blood samples of healthy donors. PBMC were collected after Ficoll-Hypaque density centrifugation, resuspended at 7×10^6 cells/mL and allowed to adhere in culture flasks (RPMI 1640 supplemented with L-glutamine, streptomycin, penicillin, 10% FCS) for 1 h 30 at 37° C. Nonadherent cells were removed and adherent cells were washed five times with PBS. Monocytes were further differentiated for 5 days in the same medium supplemented with GM-CSF (100 ng/mL). […] After incubation, supernatants were obtained by centrifugation."}, "patients with active CD": {"system": "patients with active CD", "assay": "Clinical response and CDAI in active CD patients treated with IFX", "format": "in vivo, human", "experimental": "Clinical response for patients treated for perineal disease was assessed by the disappearance of draining fistulas. Blood samples were taken before each infusion and were centrifuged and stored at −80° C. Blood samples were also collected in 37 healthy volunteers. Forty patients with active CD were included in the study (12 males, 28 females, mean age 37.8 years). According to the Montreal classification, the disease was predominantly located into the colon (L2) or the ileocolon (L3) in 62.5 and 32.5% respectively and the disease was mostly non-stricturing and non-penetrating (B1). […] Six patients were treated by a combination of steroids and immunosuppressors, 3 patients received only steroids, 30 only immunosuppressors. Treatments were not modified except steroids which were always stopped between the first and the third infusion. There were no clinical and demographic differences between patients who experienced a response or not to IFX."}, "TNFα": {"system": "TNFα", "assay": "Serum TNFα of CD patients before/after IFX (WEHI 164 XTT bio-assay)", "format": "in vivo, human", "experimental": "TNFα concentrations were measured in the serum of 43 patients (33 responder patients, 10 non-responders). Quantification TNFα was performed by the XTT method using the murine cell line WEHI 164 (ATCC N^o CRL1751) (Espevik et al. J Immunol Methods 1986; 95:99-105). Cells were seeded in 96-well plates (3×10^4 cells/50 μL/well) and grown at 37° C. in RPMI 1640 supplemented with […] of glutamine, 10% heat-inactivated FCS, LiCl and actinomycin D. Sera from CD patients and healthy volunteers were serially diluted, added to wells and a purified recombinant TNFα (R&D) was used as standard. After 20 h of culture, 50 μL/well of XTT and electron coupling reagent was added and cell survival was determined by measuring the optical density at 450 nm. The sensitivity of the assay was 0.10 pg/mL. The TNFα upper normal limit was calculated by the mean+2 SD of the values obtained in the healthy volunteers."}, "IL-15": {"system": "IL-15", "assay": "Serum IL-15 of CD patients before/after IFX (RIA)", "format": "in vivo, human", "experimental": "as §1\nThe upper normal value of IL-15 (6.1 pM) was calculated by the mean+2 SD of the values measured in healthy volunteers."}, "sIL-15Rα": {"system": "sIL-15Rα", "assay": "Serum sIL-15Rα of CD patients before/after IFX (RIA)", "format": "in vivo, human", "conditions": "responder patients", "experimental": "as §1"}, "[1]": {"system": "soluble and cell-surface TNFα", "sequence (P01375 77-233 limits assumed)": "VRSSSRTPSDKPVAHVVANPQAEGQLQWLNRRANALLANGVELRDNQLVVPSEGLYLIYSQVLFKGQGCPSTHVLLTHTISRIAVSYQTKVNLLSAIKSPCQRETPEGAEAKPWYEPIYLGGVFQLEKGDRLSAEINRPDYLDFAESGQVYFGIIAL", "conditions": "cited from earlier work"}, "CD": {"system": "CD", "conditions": "in vivo; cited from earlier work"}, "[2]": {"conditions": "experiment with GM-6001 0.2 nM, IFX 0.01 μg/mL, control 1.4±0.9 pM"}, "[3]": {"conditions": "0.01 μg/mL IFX or etanercept, cells without IFX 2.0±0.6 pM"}, "[4]": {"conditions": "according to TNF and CRP levels and CDAI, 40 patients, 5 treated twice (45 courses)"}},
  "note": "Entries after “also recorded” stand apart in the source; their conditions may differ.",
  "data": [
    {"compound": "CNC(=O)[C@H](Cc1c[nH]c2ccccc12)NC(=O)[C@@H](CC(=O)NO)CC(C)C", "note": "[GM-6001]", "values": [
      {"measurement": "inducing effect of IFX on sIL-15Rα secretion", "setting": "human macrophages; GM-6001 added with IFX", "result": "completely inhibited"},
      {"measurement": "basal sIL-15Rα secretion", "setting": "human macrophages; GM-6001 alone versus control cells", "result": "not modified; also recorded: did not affect"},
      {"measurement": "sIL-15Rα secretion", "setting": "human macrophages; [2]", "result": "4.5 ± 3.0", "unit": "pM"}
    ]},
    {"compound": "IFX: anti-TNFα monoclonal antibody, a mouse-human chimeric whole antibody (Remicade; Centocor)", "values": [
      {"measurement": "sIL-15Rα secretion", "setting": "human macrophages; [3]", "result": "18.0 ± 1.2", "unit": "pM"},
      {"measurement": "sIL-15Rα secretion", "setting": "human macrophages; [2]", "result": "22.4 ± 2.0", "unit": "pM"},
      {"measurement": "effect on sIL-15Rα secretion by macrophages", "setting": "human macrophages", "result": "increased significantly; also recorded: induced; also recorded: markedly increased"},
      {"measurement": "patients classified as non-responders to IFX", "setting": "patients with active CD; [4]", "result": 10, "unit": "patients"},
      {"measurement": "patients classified as responders to IFX", "setting": "patients with active CD; [4]", "result": 35, "unit": "patients"},
      {"measurement": "patients with mucosal healing", "setting": "patients with active CD; three biopsied CD patients, all with clinical responses", "result": "two"},
      {"measurement": "non-responder patients in whom TNF remained above the control value", "setting": "TNFα; week 6, 9/10", "result": 90, "unit": "%"},
      {"measurement": "responder patients with individual TNFα values dropping to control ranges", "setting": "TNFα; week 6, 20/33", "result": 61, "unit": "%"},
      {"measurement": "responder patients in whom TNFα decreased", "setting": "TNFα; week 6, 31/33", "result": 94, "unit": "%"},
      {"measurement": "median IL-15 levels after IFX", "setting": "IL-15; non-responder patients, serum", "result": "not modified"},
      {"measurement": "patients in whom IL-15 was undetectable after IFX", "setting": "IL-15; responder patients, 15/35, before IFX 26% (9/35)", "result": 43, "unit": "%"},
      {"measurement": "patients in whom IL-15 dropped below the control value", "setting": "IL-15; responder patients, 29/35, after IFX", "result": 83, "unit": "%"},
      {"measurement": "increase of the proportion of patients with detectable sIL-15Rα after IFX", "setting": "sIL-15Rα", "result": 38, "unit": "%"},
      {"measurement": "binding to soluble and cell-surface TNFα", "setting": "[1]", "result": "high affinity and specificity"}
    ]},
    {"compound": "etanercept", "values": [
      {"measurement": "sIL-15Rα secretion", "setting": "human macrophages; [3]", "result": "6.3 ± 0.9", "unit": "pM"},
      {"measurement": "effect on sIL-15Rα secretion by macrophages", "setting": "human macrophages", "result": "did not significantly affect; also recorded: did not induce"},
      {"measurement": "efficacy in CD", "setting": "CD", "result": "inefficient in CD; also recorded: poor efficacy"}
    ]}
  ]
}
